Assay results reported in publication PMC6359343 (Molecules, 2019).
Entries after “also recorded” stand apart in the source; their conditions may differ. Like-named read-outs stand apart in the source and are kept apart here.

How the values were obtained:
[1] = system: Neuraminidase from Clostridium perfringens (bacterial neuraminidase); assay type: binding
[2] = target: Neuraminidase from Clostridium perfringens (C. welchii) (EC 3.2.1.18); assay type: biochemical; details: for IC50: pH 5.0, 37 °C, read-out: IC50, bacterial neuraminidase
[3] = target: Neuraminidase from Clostridium perfringens (bacterial neuraminidase); assay type: biochemical; details: for Ki: read-out: Ki (inhibition constant); for Kik/Kiv: Yang's method
[4] = concentration that caused 50% enzyme activity loss, three repeats
[5] = Lineweaver–Burk and Dixon plots

| Compound | KA (binding constant) ([1]; fluorescence quenching, pH 5.0) | IC50 [2, 4] | KSV (Stern–Volmer constant) ([1]; fluorescence quenching, pH 5.0) | Ki ([3]; Dixon plots) | Kinetic Mode [3, 5] | also measured |
| --- | --- | --- | --- | --- | --- | --- |
| O=c1cc(-c2ccc(O)cc2)oc2cc(O)cc(O)c12 [Apigenin, apigenin, reference compound] | 514200 L/mol | 108 ± 1.8 µM |  |  |  |  |
| CC(C)=CCc1cc(-c2cc(=O)c3c(O)cc(O)c(CC=C(C)C)c3o2)cc(O)c1O [Compound 1, epimedokoreanin B] | 966600 L/mol | 0.17 ± 0.02 µM | 411040 L/mol | 0.15 µM | Noncompetitive | Kinetic Mode ([3]; Lineweaver–Burk and Dixon plots, listed as compound 1): noncompetitive inhibition; also recorded: noncompetitive behavior; Kik/Kiv ([3]; [I] 0.12 µM): 16.0415; Kik/Kiv ([3]; [I] 0.24 µM): 6.6846; Kik/Kiv ([3]; [I] 0.48 µM): 7.7610; reversibility of inhibition ([3]; initial velocity versus enzyme concentration plots): reversible inhibitor; times more effective than luteolin (mother skeleton) ([2]; ratio of IC50 values): 500 times |
| CC(C)=CCc1c(O)cc(O)c2c1OC(c1ccc(O)cc1)C(O)C2=O (stereo not shown) [Compound 2, 8-(γ,γ-dimethylallyl)-5,7,4′-trihydroxydihydroflavonol] | 792300 L/mol | 0.68 ± 0.03 µM | 236360 L/mol | 0.73 µM | Noncompetitive | times more potent in comparison with dihydrokaempferol ([2]; ratio of IC50 values): 700 times |
| CC(C)=CCc1cc(-c2cc(=O)c3c(O)cc(O)c(CC=C(C)C)c3o2)ccc1O [Compound 3, 5,7,4′-trihydroxy-8,3′-diprenyl flavone] | 760400 L/mol | 12.6 ± 0.2 µM | 134420 L/mol | 12.2 µM | Noncompetitive |  |
| COc1ccc(-c2oc3c(CC=C(C)C)c(O[C@@H]4O[C@H](CO)[C@@H](O)[C@H](O)[C@H]4O)cc(O)c3c(=O)c2O[C@@H]2O[C@@H](C)[C@H](O)[C@@H](O)[C@H]2O)cc1 [Compound 5, icariin] | 584400 L/mol | 57.8 ± 1.1 µM | 60400 L/mol | 36.8 µM | mixed type inhibitor; also recorded: mixed-type behavior; also recorded: Mixed type I | Kik/Kiv ([3]; [I] 35.0 µM): 3.6688; Kik/Kiv ([3]; [I] 70.0 µM): 2.3384; Kik/Kiv ([3]; [I] 140.0 µM): 2.0207 |
| COc1ccc(-c2oc3c(CC=C(C)C)c(O)cc(O)c3c(=O)c2O[C@@H]2O[C@@H](C)[C@H](O)[C@@H](O)[C@H]2O[C@@H]2OC[C@@H](O)[C@H](O)[C@H]2O)cc1 [Compound 6, sagittatoside B] | 505700 L/mol | 106 ± 3.2 µM | 56080 L/mol | 103 µM | Noncompetitive |  |
| COc1ccc(-c2oc3c(c(O)cc4oc(C(C)(C)OC)cc43)c(=O)c2OC2OC(C)C(O)C(O)C2O)cc1 [Compound 7, 5-hydroxy-2-(4-methoxyphenyl)-8-(2-methoxypropan-2-yl)-3-(((2S,3R,4R,5R,6S)-3,4,5-trihydroxy-6-methyltetra-hydro-2H-pyran-2-yl)oxy)-4H-furo[2-3-h]chromen-4-one] | 785100 L/mol | 2.9 ± 0.7 µM | 216560 L/mol | 2.73 µM | Noncompetitive | times more effective compared with compound 8 ([2]; methoxy group (7) versus hydroxyl group (8)): 5 times |
| COc1ccc(-c2oc3c(c(O)cc4oc(C(C)(C)O)cc43)c(=O)c2O[C@@H]2O[C@@H](C)[C@H](O)[C@@H](O)[C@H]2O)cc1 [Compound 8, 5-hydroxy-8-(2-hydroxypropan-2-yl)-2-(4-methoxyphenyl)-3-(((2S,3R,4R,5R,6S)-3,4,5-trihydroxy-6-methyl-tetrahydro-2H-pyran-2-yl)oxy)-4H-furo[2,3-h]chromen-4-one] | 741600 L/mol | 16.7 ± 0.9 µM | 111200 L/mol | 16.4 µM | Noncompetitive |  |
| O=C1c2c(O)cc(O)cc2O[C@H](c2ccc(O)cc2)[C@H]1O [Dihydrokaempferol, dihydrokaempferol, reference compound] | 299800 L/mol | 500.4 ± 3.8 µM | 24790 L/mol |  |  | fluorescence quenching (FQ) effect [1]: insignificant |
| O=c1cc(-c2ccc(O)c(O)c2)oc2cc(O)cc(O)c12 [Luteolin, luteolin, reference compound] | 557800 L/mol | 85.6 ± 2.1 µM | 56140 L/mol |  |  |  |
| O=c1c(O)c(-c2ccc(O)c(O)c2)oc2cc(O)cc(O)c12 [Quercetin, reference compound] |  | 20.2 ± 0.8 µM |  |  |  |  |
| icariside II [Compound 4] |  |  |  |  |  | KA (binding constant) ([1]; pH 5): 733500 L/mol; KSV (Stern–Volmer constant) ([1]; pH 5): 95690 L/mol; Kinetic Mode [3]: Noncompetitive (21.1 ± 0.8); Ki [3]: 21.1 µM; IC50 [2]: 20 ± 0.5 µM |
